# Legend:
# [1] = system: RB20 mESCs; assay: Foxa2 protein expression in mESC-derived DE cells by flow cytometric analysis; assay type: cell-based, mouse; details: mESC-derived DE cells vs mESCs
# From the text: (§1) To produce endoderm (DE) like cells, RB20 mESCs (embryonic stem cells) were maintained in adherent culture conditions on gelatin-coated dishes, prior to induction of differentiation. As depicted in FIG. 2, an overview of the mESCs maintenance and differentiation protocol. Differentiation of the cells was initiated via a reduction in concentration of KoSR; after three days, cells were induced by IDE2 for six days. In the next step, DE cells differentiated into alveolar type II-like (AT II-like) cells using seven different combinations of three inductive factors: FGF2 (F), hydrocortisone (H) and A549 conditioned medium (CM) during 9 days. The mESCs were cultured in media with reducing concentration of serum for 3 days, for example, 20%, 10% and 5% fetal bovine serum (FBS) in day one, two and three, respectively. Then, it was induced by 200 nM small inducing molecule IDE2 for 6 days. At the end of this first step, DE like cells were characterized for the expression of two DE markers, Sox17 and Foxa2.
# Lack of expression of Foxa2 could be seen in mESC cells.
# [2] = system: RB20 mESCs; assay: Induction of mESCs to definitive endoderm (DE)-like cells by IDE2: RT-PCR of DE markers and phase contrast morphology; assay type: cell-based, mouse
# From the text: as §1
# The morphology of the said markers in the DE-like cells was assayed by phase contrast microscopy.
# [3] = 200 nM IDE2, day 6, compared to mESCs negative control group, P<0.05
compound,measurement,setting,value
O=C(O)CCCCCC(=O)NN=C1CCCC1 [IDE2],numbers of cells that expressed DE-specific marker Foxa2 at the protein level,[1],increase in numbers of cells
same,expression level of Foxa2 (RT-PCR),[2]; [3],increased expression levels
same,expression level of Sox 17 (RT-PCR),[2]; [3],increased expression levels
same,cell morphology in phase contrast micrograph,[2]; day 6 of IDE2 induction,epithelial morphology characteristic of DE cells

# — patent publication US20180051257A1, “METHODS FOR GENERATING ALVEOLAR TYPE II CELLS” (priority 2016, published 2018)
